{"source": "patent US4301313A", "about": "“Halogenated ethynyl biphenyls” (Eli-Lilly and Company, priority 1974, dated 1981)", "key": {"[1]": {"assay": "ultraviolet-induced erythema blocking test, oral (modified Winder method)", "format": "in vivo, guinea pig (male albino)", "conditions": "Cavia porcellus, guinea pig, weighted scores 1.0-2.5 h after UV, dose which provides 50% inhibition", "method": "The compounds of the present invention were evaluated for anti-inflammatoryactivity by the ultraviolet-induced erythema blocking test. The test procedures were a modification of the Winder method (Winder, C. V.; Wax, J.; Burr, V.; Been, M.; and Posiere, C. E.: A Study of Pharmacological Influences on Ultraviolet Erythema in Guinea Pigs. Arch. Int. Pharmacodyn. 116: 261, 1958). Male albino guinea pigs weighing 240-300 gm. were used. The hair on the back was clipped and chemically depilated 15-18 hours before each experiment. The animals were fasted overnight, and on the day of the experiment, were randomized and placed in clear plastic partitioned holders 10×20 cm. wide and 15 cm. high.\nThe compounds to be tested were suspended in 1% methyl cellulose in water, utilizing a tissue homogenizer. The suspensions were administered orally in a volume of 2.0 ml./kg. of body weight. Control animals received an equal amount of the vehicle.\nThe source of ultraviolet light was a Hanovia lamp (Kromayer-Model 10). A notebook reinforcement ring was placed upon the lens of the lamp to provide an area of contrast for grading purposes. The lens was then placed in contact with the skin of the guinea pig's back. Exposure time to UV was for a period of 4 seconds. Beginning one hour after exposure and thereafter at half-hour intervals for another 11/2 hours, the degree of resulting erythema was graded by an arbitrary scoring system based upon the degree of contrast and redness formed. Anti-inflammatory agents delay the development of the erythema and have their greatest effect at the initial grading periods. The scores were, therefore, weighted by factors of 4, 3, 2, and 1 at the 1.0, 1.5, 2.0, and 2.5 hour scoring times, respectively. The erythema was graded as follows:\nTotal scores from each treatment group of four guinea pigs were compared to the scores of the control group. The percent inhibition was calculated as follows: [formula] In the case of compounds showing inhibition, retesting was carried out at a plurality of doses to enable calculation of an ED50 for each such compound. \"ED50 \" designates that dose which provides 50% inhibition. Calculation of the ED50 was either by a standard linear regression method or by estimation from a dose-response curve of three or more points. The compounds so tested and their ED50 s were as follows: […]"}, "[2]": {"assay": "adjuvant-induced arthritis test (paw volume)", "format": "in vivo, rat (male albino)", "conditions": "rat, oral"}, "[3]": {"assay": "analgesic activity, acetic acid-induced writhing", "format": "in vivo, mouse (albino male)", "conditions": "mouse, p.o., dose reducing writhing frequency by 50%; 30, 90, 180 minutes after administration", "method": "Representative compounds were also evaluated for analgesic activity. The evaluation was conducted by using acetic acid-induced writhing in mice as the pain model. Clinically effective analgesis are effective when tested in this model: see Koster et al., \"Acetic Acid for Analgesic Screening,\" 18 Fed. Proc. 412 (1959).\nIn a method similar to that reported by Koster et al., standard strain albino male mice weighing 20-22 grams were fasted overnight. The respective compound or vehicle (as control) was administered by gastric lavage (p.o.). Each compound was administered in an aqueous suspension of 1% methylcellulose in water. […] At 30, 90, and 180 minutes after administration, writhing was induced by the intraperitoneal administration of 55 mg./kg. of acetic acid (0.55%). Each treatment group consisted of 5 mice and separate groups were examined at each observation time. The total number of writhes for the treatment group were counted in a 10-minute observation period starting 5 minutes after the acetic acid administration. The treatment totals were compared to controls and a percent inhibition calculated as follows: [formula] […] An ED50, which represented the dose that would reduce the writhing frequency by 50%, was estimated from a dose-reponse curve of three or more points. A dose range was reported if only two points were availale for the dose response curve and they bracketed the 50% level. If data was available at 100 mg./kg., only, then the estimated ED50 was reported simply as less than 100 (<100)."}, "[4]": {"assay": "carrageenin-induced hind paw inflammation", "format": "in vivo", "conditions": "Rattus norvegicus", "method": "(§1) Representative compounds were also evaluated for anti-inflammatory activity in the test method described by C. A. Winter at 111 Proc. Soc. Exp. Biol. Med., 544 (1962). In this method, inflammation is created by injecting carrageenin into the hind paw of rats. Test compounds are administered prior to injection to determine percent inhibition of the subsequent inflammation, in comparison with control animals."}, "[5]": {"assay": "carrageenin induced test, compound administered about 20 hours prior", "format": "in vivo", "conditions": "rat, dose 10 (unit not given), about 20 hours prior to test", "method": "as §1\nEach of 4-biphenylylacetylene and (4-(2-fluorophenyl)phenyl)acetylene was evaluated again in the carrageenin induced test method reported in Examples 60-80. However, in these tests, the compound was administered about 20 hours prior to the test procedures."}, "[6]": {"conditions": "dose not printed (line below dose 25)"}}, "note": "Where “and” joins values, the source holds several entries; their conditions need not be identical. Equal entries are not always repeated."}
{"smiles": "C#Cc1ccc(-c2ccccc2)cc1", "note": "[4-biphenylylacetylene, 4-Biphenylylacetylene]", "values": [{"measurement": "ED50", "setting": "[1]", "value": 0.9, "unit": "mg/kg"}, {"measurement": "Percent Inhibition of Volume Increase, Day 7", "setting": "[2]; dose 0.3 (unit not given)", "value": 15, "unit": "%"}, {"measurement": "Percent Inhibition of Volume Increase, Day 14", "setting": "[2]; dose 0.3 (unit not given)", "value": 0, "unit": "%"}, {"measurement": "Percent Inhibition of Volume Increase, Day 7", "setting": "[2]; dose 1 (unit not given)", "value": 0, "unit": "%"}, {"measurement": "Percent Inhibition of Volume Increase, Day 14", "setting": "[2]; dose 1 (unit not given)", "value": 0, "unit": "%"}, {"measurement": "Percent Inhibition of Volume Increase, Day 7", "setting": "[2]; dose 3 (unit not given)", "value": 14, "unit": "%"}, {"measurement": "Percent Inhibition of Volume Increase, Day 14", "setting": "[2]; dose 3 (unit not given)", "value": 7, "unit": "%"}, {"measurement": "Percent Inhibition of Volume Increase, Day 7", "setting": "[2]; dose 25 (unit not given)", "value": 29, "unit": "%"}, {"measurement": "Percent Inhibition of Volume Increase, Day 14", "setting": "[2]; dose 25 (unit not given)", "value": 37, "unit": "%"}, {"measurement": "Percent Inhibition of Volume Increase, Day 7", "setting": "[2]; [6]", "value": 37, "unit": "%"}, {"measurement": "Percent Inhibition of Volume Increase, Day 14", "setting": "[2]; [6]", "value": 23, "unit": "%"}, {"measurement": "Estimated ED50", "setting": "[3]", "value": 50, "unit": "mg/kg"}, {"measurement": "inhibition in vivo at 0.5 mg/kg", "setting": "[4]; 0.5 mg./kg.", "value": 0, "unit": "%"}, {"measurement": "inhibition in vivo at 3 mg/kg", "setting": "[4]; 3 mg./kg.", "value": 36, "unit": "%"}, {"measurement": "inhibition in vivo at 5 mg/kg", "setting": "[4]; 5 mg./kg.", "value": 37, "unit": "%"}, {"measurement": "inhibition in vivo at 10 mg/kg", "setting": "[4]; 10 mg./kg.", "value": 42, "unit": "%"}, {"measurement": "inhibition in vivo at 20 mg/kg", "setting": "[4]; 20 mg./kg.", "value": 45, "unit": "%"}, {"measurement": "inhibition in vivo at 50 mg/kg", "setting": "[4]; 50 mg./kg.", "value": 41, "unit": "%"}, {"measurement": "% Inhibition", "setting": "[5]", "value": "44% and 28%"}]}
